Drawing on patent US8735398B2 (Bristol-Myers Squibb Company, priority 2009, dated 2014), this text covers EC50 for 18 compounds.

In the first test the test system is HCV 1b genotype. Briefly: HCV replicon assay (HCV-neo replicon cells, wild-type). The test is classed as cell-based, Hepatitis C virus. As to conditions: HCV 1b genotype replicon; class symbols; read-out: EC50 Range against HCV 1b. Summed up: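 HCV-neo replicon cells (wild-type) and replicon cells carrying NS5A resistance substitutions were treated with compounds; assay per O'Boyle et al. 2005, with luciferase-reporter read-out variants also used.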
For the compound `O=C(Nc1ccc(-c2cnc(-c3ccc(NC(=O)[C@@H]4C[C@@H](O)CN4C(=O)Cc4ccccn4)cc3)o2)cc1)[C@@H]1C[C@@H](O)CN1C(=O)Cc1ccccn1` [XY-58, (2S,4R,2′S,4′R)-N,N′-(1,3-oxazole-2,5-diyldi-4,1-phenylene)bis(4-hydroxy-1-(2-pyridinylacetyl)-2-pyrrolidinecarboxamide)], the 50% effective concentration (EC50) (as a rule, the midpoint of the concentration-response curve) was in the range of 100 to 999 nM.

The test is the same for the next values; noted with them: Hepatitis C virus, HCV 1b genotype replicon; class symbols; read-out: EC50 Range against HCV 1b.
For `O=C(Nc1ccc(-c2cnc(-c3ccc(NC(=O)[C@@H]4C[C@@H](O)CN4C(=O)C4CCC4)cc3)o2)cc1)[C@@H]1C[C@@H](O)CN1C(=O)C1CCC1` [XY-46, (2S,4R,2′S,4′R)-N,N′-(1,3-oxazole-2,5-diyldi-4,1-phenylene)bis(1-(cyclobutylcarbonyl)-4-hydroxy-2-pyrrolidinecarboxamide)], the 50% effective concentration (EC50) fell in the range of 100 to 999 nM.
Still for that read-out and setting: in the case of `CCc1ccccc1C(=O)N1C[C@H](O)C[C@H]1C(=O)Nc1ccc(-c2cnc(-c3ccc(NC(=O)[C@@H]4C[C@@H](O)CN4C(=O)c4ccccc4CC)cc3)o2)cc1` [XY-47, (2S,4R,2′S,4′R)-N,N′-(1,3-oxazole-2,5-diyldi-4,1-phenylene)bis(1-(2-ethylbenzoyl)-4-hydroxy-2-pyrrolidinecarboxamide)] it was 100 to 999 nM; in that of `O=C(Nc1ccc(-c2cnc(-c3ccc(NC(=O)[C@@H]4C[C@@H](O)CN4C(=O)C4CCCCC4)cc3)o2)cc1)[C@@H]1C[C@@H](O)CN1C(=O)C1CCCCC1` [XY-48, (2S,4R,2′S,4′R)-N,N′-(1,3-oxazole-2,5-diyldi-4,1-phenylene)bis(1-(cyclohexylcarbonyl)-4-hydroxy-2-pyrrolidinecarboxamide)], 1000 to 10000 nM.
Same read-out and setting: in the case of `COC(C(=O)N1C[C@H](O)C[C@H]1C(=O)Nc1ccc(-c2cnc(-c3ccc(NC(=O)[C@@H]4C[C@@H](O)CN4C(=O)C(OC)c4ccccc4)cc3)o2)cc1)c1ccccc1` (stereo partly drawn) [XY-49, (2S,4R,2′S,4′R)-N,N′-(1,3-oxazole-2,5-diyldi-4,1-phenylene)bis(4-hydroxy-1-(methoxy(phenyl)acetyl)-2-pyrrolidinecarboxamide)] it was 4.57 to 99 nM; in that of `O=C(Nc1ccc(-c2cnc(-c3ccc(NC(=O)[C@@H]4C[C@@H](O)CN4C(=O)[C@H]4CCCO4)cc3)o2)cc1)[C@@H]1C[C@@H](O)CN1C(=O)[C@H]1CCCO1` [XY-50, (2S,4R,2′S,4′R)-N,N′-(1,3-oxazole-2,5-diyldi-4,1-phenylene)bis(4-hydroxy-1-((2R)-tetrahydro-2-furanylcarbonyl)-2-pyrrolidinecarboxamide)], 1000 to 10000 nM; in that of `Cc1cccc(CC(=O)N2C[C@H](O)C[C@H]2C(=O)Nc2ccc(-c3cnc(-c4ccc(NC(=O)[C@@H]5C[C@@H](O)CN5C(=O)Cc5cccc(C)c5)cc4)o3)cc2)c1` [XY-51, (2S,4R,2′S,4′R)-N,N′-(1,3-oxazole-2,5-diyldi-4,1-phenylene)bis(4-hydroxy-1-((3-methylphenyl)acetyl)-2-pyrrolidinecarboxamide)], 100 to 999 nM.
As to `Cc1cc(CC(=O)N2C[C@H](O)C[C@H]2C(=O)Nc2ccc(-c3cnc(-c4ccc(NC(=O)[C@@H]5C[C@@H](O)CN5C(=O)Cc5cc(C)no5)cc4)o3)cc2)on1` [XY-52, (2S,4R,2′S,4′R)-N,N′-(1,3-oxazole-2,5-diyldi-4,1-phenylene)bis(4-hydroxy-1-((3-methyl-5-isoxazolyl)acetyl)-2-pyrrolidinecarboxamide)], the half-maximal effective concentration (EC50) lay in the range of 1000 to 10000 nM.
Same read-out and setting: in the case of `Cc1noc(C)c1C(=O)N1C[C@H](O)C[C@H]1C(=O)Nc1ccc(-c2cnc(-c3ccc(NC(=O)[C@@H]4C[C@@H](O)CN4C(=O)c4c(C)noc4C)cc3)o2)cc1` [XY-53, (2S,4R,2′S,4′R)-N,N′-(1,3-oxazole-2,5-diyldi-4,1-phenylene)bis(1-((3,5-dimethyl-4-isoxazolyl)carbonyl)-4-hydroxy-2-pyrrolidinecarboxamide)] it was 1000 to 10000 nM; in that of `O=C(Nc1ccc(-c2cnc(-c3ccc(NC(=O)[C@@H]4C[C@@H](O)CN4C(=O)c4cccs4)cc3)o2)cc1)[C@@H]1C[C@@H](O)CN1C(=O)c1cccs1` [XY-54, (2S,4R,2′S,4′R)-N,N′-(1,3-oxazole-2,5-diyldi-4,1-phenylene)bis(4-hydroxy-1-(2-thienylcarbonyl)-2-pyrrolidinecarboxamide)], 1000 to 10000 nM; in that of `COc1cccc(CC(=O)N2C[C@H](O)C[C@H]2C(=O)Nc2ccc(-c3cnc(-c4ccc(NC(=O)[C@@H]5C[C@@H](O)CN5C(=O)Cc5cccc(OC)c5)cc4)o3)cc2)c1` [XY-55, (2S,4R,2′S,4′R)-N,N′-(1,3-oxazole-2,5-diyldi-4,1-phenylene)bis(4-hydroxy-1-((3-methoxyphenyl)acetyl)-2-pyrrolidinecarboxamide)], 100 to 999 nM.
Still for that read-out and setting: in the case of `O=C(Nc1ccc(-c2cnc(-c3ccc(NC(=O)[C@@H]4C[C@@H](O)CN4C(=O)c4ccccc4)cc3)o2)cc1)[C@@H]1C[C@@H](O)CN1C(=O)c1ccccc1` [XY-56, (2S,4R,2′S,4′R)-N,N′-(1,3-oxazole-2,5-diyldi-4,1-phenylene)bis(1-benzoyl-4-hydroxy-2-pyrrolidinecarboxamide)] it was 100 to 999 nM.
Same read-out and setting: in the case of `O=C(Nc1ccc(-c2cnc(-c3ccc(NC(=O)[C@@H]4C[C@@H](O)CN4C(=O)C4CC4)cc3)o2)cc1)[C@@H]1C[C@@H](O)CN1C(=O)C1CC1` [XY-57, (2S,4R,2′S,4′R)-N,N′-(1,3-oxazole-2,5-diyldi-4,1-phenylene)bis(1-(cyclopropylcarbonyl)-4-hydroxy-2-pyrrolidinecarboxamide)] it was 1000 to 10000 nM; in that of `CC(C)(C)O[C@@H]1C[C@@H](C(=O)Nc2ccc(-c3cnc(-c4ccc(NC(=O)[C@@H]5C[C@@H](OC(C)(C)C)CN5C(=O)OCc5ccccc5)cc4)o3)cc2)N(C(=O)OCc2ccccc2)C1` [XY-59, dibenzyl (2S,4R,2′S,4′R)-2,2′-(1,3-oxazole-2,5-diylbis(4,1-phenylenecarbamoyl))bis(4-tert-butoxy-1-pyrrolidinecarboxylate)], 1000 to 10000 nM.
Turning to `CC(C)(C)O[C@H]1CN[C@H](C(=O)Nc2ccc(-c3cnc(-c4ccc(NC(=O)[C@@H]5C[C@@H](OC(C)(C)C)CN5)cc4)o3)cc2)C1` [XY-60, (2S,4R,2′S,4′R)-N,N′-(1,3-oxazole-2,5-diyldi-4,1-phenylene)bis(4-tert-butoxy-2-pyrrolidinecarboxamide)], the concentration giving a half-maximal response (EC50) lay in the range of 1000 to 10000 nM.
Same read-out and setting: in the case of `CC(C)(C)O[C@@H]1C[C@@H](C(=O)Nc2ccc(-c3cnc(-c4ccc(NC(=O)[C@@H]5C[C@@H](OC(C)(C)C)CN5C(=O)CC5CC5)cc4)o3)cc2)N(C(=O)CC2CC2)C1` [XY-61, (2S,4R,2′S,4′R)-N,N′-(1,3-oxazole-2,5-diyldi-4,1-phenylene)bis(4-tert-butoxy-1-(cyclopropylacetyl)-2-pyrrolidinecarboxamide)] it was 100 to 999 nM; in that of `CC(C)(C)O[C@@H]1C[C@@H](C(=O)Nc2ccc(-c3cnc(-c4ccc(NC(=O)[C@@H]5C[C@@H](OC(C)(C)C)CN5C(=O)Cc5cccnc5)cc4)o3)cc2)N(C(=O)Cc2cccnc2)C1` [XY-62, (2S,4R,2′S,4′R)-N,N′-(1,3-oxazole-2,5-diyldi-4,1-phenylene)bis(4-tert-butoxy-1-(3-pyridinylacetyl)-2-pyrrolidinecarboxamide)], 4.57 to 99 nM.
On the same count and under the same terms, in the case of `CC(C)(C)O[C@@H]1C[C@@H](C(=O)Nc2ccc(-c3cnc(-c4ccc(NC(=O)[C@@H]5C[C@@H](OC(C)(C)C)CN5C(=O)C(C)(C)C)cc4)o3)cc2)N(C(=O)C(C)(C)C)C1` [XY-63, (2S,4R,2′S,4′R)-N,N′-(1,3-oxazole-2,5-diyldi-4,1-phenylene)bis(4-tert-butoxy-1-(2,2-dimethylpropanoyl)-2-pyrrolidinecarboxamide)] it was 100 to 999 nM.

Still in this test, the particulars now being: Hepatitis C virus, HCV 1b genotype replicon; read-out: EC50 1b.
For `CCc1ccccc1C(=O)N1C[C@H](O)C[C@H]1C(=O)Nc1ccc(-c2cnc(-c3ccc(NC(=O)[C@@H]4C[C@@H](O)CN4C(=O)c4ccccc4CC)cc3)o2)cc1` [XY-47, (2S,4R,2′S,4′R)-N,N′-(1,3-oxazole-2,5-diyldi-4,1-phenylene)bis(1-(2-ethylbenzoyl)-4-hydroxy-2-pyrrolidinecarboxamide)], the EC50 is 564 nM.
On the same count and under the same terms, in the case of `Cc1noc(C)c1C(=O)N1C[C@H](O)C[C@H]1C(=O)Nc1ccc(-c2cnc(-c3ccc(NC(=O)[C@@H]4C[C@@H](O)CN4C(=O)c4c(C)noc4C)cc3)o2)cc1` [XY-53, (2S,4R,2′S,4′R)-N,N′-(1,3-oxazole-2,5-diyldi-4,1-phenylene)bis(1-((3,5-dimethyl-4-isoxazolyl)carbonyl)-4-hydroxy-2-pyrrolidinecarboxamide)] it was 8060 nM.
